This is an account of results in paper PMC12973313 (Chemical Science, 2026).

On the set-up of data set [1]: method as in PMID 29633393. The note with it: DMSO-d6 1% DCM, 112 mM, 298 K; proportion NMR silent; cited from earlier work.
For data set [2] the following is noted: H2O 5% EtOH, 5.56 mM; cited from earlier work.
For data set [3] the following is noted: H2O 5% EtOH, 5.56 mM; cited from earlier work. The source holds these as a separate data set.
A short description of data set [4]: Metabolic stability in liver microsomes. Type of data set: in vitro ADME, rat. As to the method:
(§1) Following this, the metabolic stability of 9 was determined against mouse, rat, and human liver microsomes. […] Within this assay the stability of the intact parent compound is monitored with respect to time, during incubation at 37 °C in the presence and absence of the co-factor NADPH – required for cytochrome p450 activity.
(§2) Metabolic Stability in Rat, Mouse and Human Liver Microsomes:
The metabolic stability of compounds at a concentration of 1 µM, in rat, mouse and human liver microsomes (BD Gentest, Franklin Lakes NJ) was measured following incubation with […]
(NADPH) at 37 °C. Aliquots of each incubation were removed at 0.5, 5, 15, 30 and 60 minutes. The reaction was stopped by the addition of cold acetonitrile containing analytical […]
Samples were then centrifuged at 3,220 g for 40 minutes. The supernatant was aliquoted and added to ultra-pure H2O in a 1:1 ratio in preparation for LC-MS/MS analysis.
Incubations were conducted in duplicate; control incubations (substituting PBS for NADPH) were conducted simultaneously.
Samples were analysed using a Shimadzu Shimadzu Nexera LC Binary Gradient LC-30AD (Shimadzu Inc, Kyoto), coupled to a Sciex 5500 mass spectrometer (AB Inc., Illinois) for rat and mouse microsomes and a Sciex 6500+ for human microsomes. Separation achieved using an XSelect HSS T3 column (2.5µm, 50 x 2.1 mm) (Waters Ltd., Wilmslow) at a temperature of 40°C and a binary mobile phase gradient at a flow rate of 0.7 mL/min. Initial […]
(0.1% formic acid in acetonitrile).
0.5 minutes and then immediately returned to initial conditions. Sample analysis was by electrospray ionisation combined with multiple reaction monitoring in positive ion mode.
The ionspray voltage was 5500V.
Bi-directional Permeability in Caco-2 Cell Line: […]

The nature of data set [5]: Metabolic stability in liver microsomes. Type of data set: in vitro ADME, human. As to the method:
as §1, §2
The metabolic stability of compounds at a concentration of 1 µM, in rat, mouse and human liver microsomes (BD Gentest, Franklin Lakes NJ) was measured following incubation with hepatic microsomes (0.5 mg of protein / mL) in the presence and absence of cofactor (NADPH) at 37 °C. Aliquots of each incubation were removed at 0.5, 5, 15, 30 and 60 minutes. […]
Samples were analysed using a Shimadzu Shimadzu Nexera LC Binary Gradient LC-30AD (Shimadzu Inc, Kyoto), coupled to a Sciex 5500 mass spectrometer (AB Inc., Illinois) for rat and mouse microsomes and a Sciex 6500+ for human microsomes. […]
The bi-directional permeability in Caco-2 cell lines was determined by seeding cells onto an HTS Transwell plate. […] To assess monolayer integrity the transepithelial electrical resistance (TEER) across the monolayer was measured using Millicell Epithelial volt-ohm meter prior to assay and Lucifer yellow (LY) fluorescence measurement post-assay. […]
A general note: Microsomes from liver hold many membrane-bound enzymes, among them those of drug oxidation.

Values joined by “and” are separate entries in the source; they are usually repeats but may differ in a detail not shown here. Equal values may be shown once. Read-outs that look alike come from different tables or passages of the source.

On to `O=C(O)CNC(=O)Nc1ccc(C(F)(F)F)cc1` [SSA 1], for which, in data set [1], the “Q NMR (%) SSA anion” value is 0 (ref. [30]) % and the “Q NMR (%) SSA cation” value is 0 (ref. [30]) %. Further, the “dH (nm), DLS peak maxima” value in data set [2] was 220 nm and 220 (ref. [30]) nm. Moreover, the “Zeta potential (mV)” value in data set [3] was -37 mV and −37 (ref. [30]) mV.

A word on the microsomal CLint: it is the rate of metabolic loss divided by the concentration. Low values mean slow turnover, high ones rapid turnover. On to `O=C(Nc1ccc(C(F)(F)F)cc1)N[C@H](Cc1ccccc1)C(=O)O` [SSA 9], for which the microsomal CLint at 1 µM in data set [4] (liver microsomes, rat microsomes) is < 7.5 µL/min/mg. Also, in data set [4] (rat), the “Hepatic Extraction Ratio (ER)” value was < 0.21 and the “Predicted Hepatic CLH” value was < 14.42 mL/min/kg. Also, the “In vitro t1/2” value in data set [4] (rat, 1 µM, 0.5 mg protein/mL) was > 3.0797 h. Also, in data set [4] (rat, +Cofactors), the “Remaining percentage (%) 0.5 min” value turned out to be 100.00%, the “Remaining percentage (%) 5 min” value was 107.16%, the “Remaining percentage (%) 15 min” value stood at 104.62% and the “Remaining percentage (%) 30 min” value came out at 102.68%. The “Remaining percentage (%) 60 min” value in data set [4] (rat, +Cofactors) amounted to 102.41%. In data set [4] (rat, -Cofactors), the “Remaining percentage (%) 0.5 min” value was determined as 100.00% and the “Remaining percentage (%) 60 min” value came out at 107.67%. Moreover, the half-life at 1 µM in data set [4] (rat, liver microsomes, rat, 1 µM, 0.5 mg protein/mL, read-out: In vitro t1/2) is > 3.08 h. In data set [4] (rat, liver microsomes, read-out: Scale-up CLint), the CLint scaled at 1 µM is < 18.3 mL/min/kg. The microsomal CLint at 1 µM in data set [5] (human microsomes) was < 7.5 µL/min/mg. For the same compound, the half-life at 1 µM in data set [5] (human, 1 µM, 0.5 mg protein/mL, read-out: In vitro t1/2) is > 3.08 h.
